Measurements as given in patent US9539260B2, “Dihydro-benzo-oxazine and dihydro-pyrido-oxazine derivatives” (Novartis AG, priority 2012, dated 2017).

Legend:
[1] = biological target: PI3K alpha (Homo sapiens (Human), UniProt P42336); test: Enzymatic PI3K alpha isoform inhibition (lipid kinase activity, Kinase-Glo luminescence); type: biochemical; settings: Enzymatic assay
Protocol: (§1) 1.1 Test of Lipid Kinase Activity […]
(§2) In a more preferred assay, the kinase reaction is performed in a final volume of 10 μl per well of a low volume non-binding CORNING, 384 well black plate (Cat. No. #3676). The final concentrations of ATP and phosphatidyl inositol (PI) in the assay are 1 μM and 10 μg/mL, respectively. The reaction is started by the addition of ATP.
(§3) The components of the assay are added per well as follows:
(§4) The Z′ value is a universal measurement of the robustness of an assay. A Z′ between 0.5 and 1.0 is considered an excellent assay.
(§5) IC50 is determined by a four parameter curve fitting routine that comes along with “excel fit”. A four parameter logistic equation is used to calculate IC50 values (IDBS XLfit) of the percentage inhibition of each compound at 8 concentrations (usually 10, 3.0, 1.0, 0.3, 0.1, 0.030, 0.010 and 0.003 μM). Alternatively, IC50 values are calculated using idbsXLfit model 204, which is a 4 parameter logistic model.
(§6) Yet alternatively, for an ATP depletion assay, compounds of the formula I to be tested are dissolved in DMSO and directly distributed into a white 384-well plate at 0.5 μl per well. To start the reaction, 10 μl of 10 nM PI3 kinase and 5 μg/mL 1-alpha-phosphatidylinositol (PI) are added into each well followed by 10 μl of 2 μM ATP. The reaction is performed until approx 50% of the ATP is depleted, and then stopped by the addition of 20 μl of Kinase-Glo solution (Promega Corp., Madison, Wis., USA). The stopped reaction is incubated for 5 minutes and the remaining ATP is then detected via luminescence. IC50 values are then determined.

[2] = biological target: PI3K delta (Homo sapiens (Human), UniProt O00329); test: Enzymatic PI3K delta isoform inhibition (lipid kinase activity, Kinase-Glo luminescence); type: biochemical; settings: Enzymatic assay
Protocol: as §1, §2, §3, §4, §5, §6

PI3K delta, sequence (O00329 other isoform, or with tags, fused parts or gaps linker GGGGGG): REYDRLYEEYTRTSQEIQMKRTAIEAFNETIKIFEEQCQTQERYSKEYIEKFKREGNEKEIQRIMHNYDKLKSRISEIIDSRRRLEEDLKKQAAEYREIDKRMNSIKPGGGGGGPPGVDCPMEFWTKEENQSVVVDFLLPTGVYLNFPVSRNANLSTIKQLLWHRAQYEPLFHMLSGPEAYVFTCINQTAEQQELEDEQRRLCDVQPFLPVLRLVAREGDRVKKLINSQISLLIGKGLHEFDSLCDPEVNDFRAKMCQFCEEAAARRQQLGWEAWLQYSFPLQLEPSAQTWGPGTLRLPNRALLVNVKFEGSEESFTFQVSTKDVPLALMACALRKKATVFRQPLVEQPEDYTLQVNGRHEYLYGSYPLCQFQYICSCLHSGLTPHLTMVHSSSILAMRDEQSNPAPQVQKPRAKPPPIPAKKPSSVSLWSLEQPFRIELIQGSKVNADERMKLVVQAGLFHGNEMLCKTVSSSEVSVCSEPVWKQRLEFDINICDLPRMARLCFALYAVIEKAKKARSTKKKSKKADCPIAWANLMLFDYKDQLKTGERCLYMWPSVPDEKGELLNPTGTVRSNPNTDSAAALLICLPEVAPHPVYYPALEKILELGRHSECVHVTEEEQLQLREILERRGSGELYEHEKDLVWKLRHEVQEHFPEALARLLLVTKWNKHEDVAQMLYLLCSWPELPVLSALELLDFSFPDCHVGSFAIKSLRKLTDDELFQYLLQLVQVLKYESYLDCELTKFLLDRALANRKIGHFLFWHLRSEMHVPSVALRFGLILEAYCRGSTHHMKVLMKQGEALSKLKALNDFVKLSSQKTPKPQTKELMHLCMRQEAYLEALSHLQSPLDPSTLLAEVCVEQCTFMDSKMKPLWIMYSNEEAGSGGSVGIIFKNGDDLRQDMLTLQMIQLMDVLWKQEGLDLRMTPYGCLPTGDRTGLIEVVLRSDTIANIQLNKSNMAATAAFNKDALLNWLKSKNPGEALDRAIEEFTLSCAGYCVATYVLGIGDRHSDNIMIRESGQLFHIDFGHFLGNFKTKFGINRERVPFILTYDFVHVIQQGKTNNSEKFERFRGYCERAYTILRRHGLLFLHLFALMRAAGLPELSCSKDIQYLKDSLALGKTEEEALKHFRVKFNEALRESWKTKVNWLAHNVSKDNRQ
PI3K alpha, sequence (P42336 other isoform, or with tags, fused parts or gaps): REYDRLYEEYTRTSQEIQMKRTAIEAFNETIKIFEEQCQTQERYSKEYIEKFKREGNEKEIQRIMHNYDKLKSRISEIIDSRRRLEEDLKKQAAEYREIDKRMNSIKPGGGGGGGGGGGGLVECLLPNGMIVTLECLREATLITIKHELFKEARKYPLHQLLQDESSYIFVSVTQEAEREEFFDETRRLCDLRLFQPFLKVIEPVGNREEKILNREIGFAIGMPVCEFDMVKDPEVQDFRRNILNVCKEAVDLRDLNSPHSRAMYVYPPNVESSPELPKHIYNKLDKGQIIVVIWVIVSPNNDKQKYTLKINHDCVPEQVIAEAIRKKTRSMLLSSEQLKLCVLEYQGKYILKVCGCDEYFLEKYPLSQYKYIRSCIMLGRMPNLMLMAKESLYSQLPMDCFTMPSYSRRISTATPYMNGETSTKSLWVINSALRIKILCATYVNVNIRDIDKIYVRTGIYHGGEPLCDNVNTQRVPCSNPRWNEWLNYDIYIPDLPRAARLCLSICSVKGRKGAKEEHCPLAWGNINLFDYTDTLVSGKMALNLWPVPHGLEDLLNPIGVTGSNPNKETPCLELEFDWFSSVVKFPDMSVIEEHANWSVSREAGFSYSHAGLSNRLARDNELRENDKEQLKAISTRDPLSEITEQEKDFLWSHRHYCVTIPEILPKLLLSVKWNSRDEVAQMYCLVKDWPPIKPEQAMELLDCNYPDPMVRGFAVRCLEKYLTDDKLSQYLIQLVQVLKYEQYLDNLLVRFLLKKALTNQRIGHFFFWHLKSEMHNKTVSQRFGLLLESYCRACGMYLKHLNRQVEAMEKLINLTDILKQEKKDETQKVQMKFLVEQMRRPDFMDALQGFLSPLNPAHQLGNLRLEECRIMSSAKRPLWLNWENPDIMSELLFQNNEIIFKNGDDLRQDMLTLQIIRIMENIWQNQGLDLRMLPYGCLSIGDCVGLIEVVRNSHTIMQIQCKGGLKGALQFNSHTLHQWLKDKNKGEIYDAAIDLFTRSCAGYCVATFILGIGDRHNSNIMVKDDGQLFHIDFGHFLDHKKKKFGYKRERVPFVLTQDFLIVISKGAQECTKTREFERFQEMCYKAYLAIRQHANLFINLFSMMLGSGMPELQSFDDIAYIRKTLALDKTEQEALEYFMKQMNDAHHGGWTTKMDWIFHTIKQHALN

IC50 [1] | IC50 [2] | Structure (SMILES)
773 nM | 9 nM | O=C(C1CCOCC1)N1CC[C@H](Oc2ccc3c(c2)N(c2cncc(Cl)c2)CCO3)C1 [Example A34, {(S)-3-[4-(5-Chloro-pyridin-3-yl)-3,4-dihydro-2H-benzo[1,4]oxazin-6-yloxy]-pyrrolidin-1-yl}-(tetrahydro-pyran-4-yl)-methanone]
38 nM | 5 nM | COc1ncc(N2CCOc3cnc(O[C@H]4CCN(C(=O)C5CCOCC5)C4)cc32)cc1C(F)F [Example F8, {(S)-3-[1-(5-Difluoromethyl-6-methoxy-pyridin-3-yl)-2,3-dihydro-1H-pyrido[3,4-b][1,4]oxazin-7-yloxy]-pyrrolidin-1-yl}-(tetrahydro-pyran-4-yl)-methanone]
214 nM | 29 nM | Cc1cc(N2CCOc3ccc(O[C@H]4CCN(S(=O)(=O)C5CC5)C4)cc32)cnc1S(C)(=O)=O [Example B83, 6-((S)-1-Cyclopropanesulfonyl-pyrrolidin-3-yloxy)-4-(6-methanesulfonyl-5-methyl-pyridin-3-yl)-3,4-dihydro-2H-benzo[1,4]oxazine]
725 nM | 5 nM | COc1ncc(N2CCOc3cnc(O[C@H]4CCN(C(=O)C5CCS(=O)(=O)CC5)C4)cc32)cc1F [Example F2, (1,1-Dioxo-hexahydro-1lambda*6*-thiopyran-4-yl)-{(S)-3-[1-(5-fluoro-6-methoxy-pyridin-3-yl)-2,3-dihydro-1H-pyrido[3,4-b][1,4]oxazin-7-yloxy]-pyrrolidin-1-yl}-methanone]
4420 nM | 219 nM | COc1ccc(N2CCOc3ccc(O[C@H]4CCN(C(=O)CN(C)C)C4)cc32)cn1 [Example D3, 2-Dimethylamino-1-{(S)-3-[4-(6-methoxy-pyridin-3-yl)-3,4-dihydro-2H-benzo[1,4]oxazin-6-yloxy]-pyrrolidin-1-yl}-ethanone]
71 nM | 22 nM | COCC(=O)N1CC[C@H](Oc2ccc3c(c2)N(c2cnc(OC)c(OC)c2)CCO3)C1 [Example B44, 1-{(S)-3-[4-(5,6-Dimethoxy-pyridin-3-yl)-3,4-dihydro-2H-benzo[1,4]oxazin-6-yloxy]-pyrrolidin-1-yl}-2-methoxy-ethanone]
463 nM | 11 nM | Cc1cc(N2CCOc3ccc(O[C@H]4CCN(C(=O)C5CCS(=O)(=O)CC5)C4)cc32)cnc1Cl [Example B60, {(S)-3-[4-(6-Chloro-5-methyl-pyridin-3-yl)-3,4-dihydro-2H-benzo[1,4]oxazin-6-yloxy]-pyrrolidin-1-yl}-(1,1-dioxo-hexahydro-1lambda*6*-thiopyran-4-yl)-methanone]
438 nM | 9 nM | COc1ncc(N2CCOc3ccc(O[C@H]4CCN(C(=O)c5ccc(=O)n(C)c5)C4)cc32)cc1C [Example B95, 5-{(S)-3-[4-(6-Methoxy-5-methyl-pyridin-3-yl)-3,4-dihydro-2H-benzo[1,4]oxazin-6-yloxy]-pyrrolidine-1-carbonyl}-1-methyl-1H-pyridin-2-one]
602 nM | 11 nM | COc1ncc(N2CCOc3ccc(O[C@H]4CCN(C(=O)[C@H]5CC[C@H](O)CC5)C4)cc32)cc1C#N [R, 5-{6-[(S)-1-(4-Hydroxy-cyclohexanecarbonyl)-pyrrolidin-3-yloxy]-2,3-dihydro-benzo[1,4]oxazin-4-yl}-2-methoxy-nicotinonitrile]
987 nM | 36 nM | COc1ncc(N2CCOc3ccc(O[C@H]4CCN(C(=O)[C@H]5CCNC5)C4)cc32)cc1C#N [Example D39, 2-methoxy-5-{6-[(S)-1-((S)-pyrrolidine-3-carbonyl)-pyrrolidin-3-yloxy]-2,3-dihydro-benzo[1,4]oxazin-4-yl}-nicotinonitrile]
249 nM | 12 nM | COc1cc(N2CCOc3ccc(O[C@H]4CCN(C(=O)C5CCOC5)C4)cc32)cnc1OC (stereo partly drawn) [Example B40, {(S)-3-[4-(5,6-Dimethoxy-pyridin-3-yl)-3,4-dihydro-2H-benzo[1,4]oxazin-6-yloxy]-pyrrolidin-1-yl}-(tetrahydro-furan-3-yl)-methanone]
> 9100 nM | 5400 nM | CCC(=O)N1CC[C@H](Oc2ccc3c(c2)N(c2cnc(N)c(OC)c2)CCO3)C1 [Example A14, 1-{(S)-3-[4-(6-Amino-5-methoxy-pyridin-3-yl)-3,4-dihydro-2H-benzo[1,4]oxazin-6-yloxy]-pyrrolidin-1-yl}-propan-1-one]
343 nM | 4.5 nM | Cc1cc(N2CCOc3ccc(O[C@H]4CCN(C(=O)C5CCOC5)C4)cc32)cnc1S(C)(=O)=O (stereo partly drawn) [Example B53, {(S)-3-[4-(6-Methanesulfonyl-5-methyl-pyridin-3-yl)-3,4-dihydro-2H-benzo[1,4]oxazin-6-yloxy]-pyrrolidin-1-yl}-(tetrahydro-furan-3-yl)-methanone]
166 nM | 3 nM | COc1cc(N2CCOc3ccc(O[C@H]4CCN(C(=O)C5CCOCC5)C4)cc32)cnc1OC [Example B38, {(S)-3-[4-(5,6-Dimethoxy-pyridin-3-yl)-3,4-dihydro-2H-benzo[1,4]oxazin-6-yloxy]-pyrrolidin-1-yl}-(tetrahydro-pyran-4-yl)-methanone]
193 nM | 6 nM | COc1ncc(N2CCOc3ccc(O[C@H]4CCN(C(=O)c5oc(C)nc5C)C4)cc32)cc1C#N [Example C20, 5-{6-[(S)-1-(2,4-Dimethyl-oxazole-5-carbonyl)-pyrrolidin-3-yloxy]-2,3-dihydro-benzo[1,4]oxazin-4-yl}-2-methoxy-nicotinonitrile]
823 nM | 14 nM | COc1ncc(N2CCOc3ccc(O[C@H]4CCN(C(=O)C5CCS(=O)(=O)CC5)C4)cc32)cc1F [Example B11, (1,1-Dioxo-hexahydro-1lambda*6*-thiopyran-4-yl)-{(S)-3-[4-(5-fluoro-6-methoxy-pyridin-3-yl)-3,4-dihydro-2H-benzo[1,4]oxazin-6-yloxy]-pyrrolidin-1-yl}-methanone]
1240 nM | 28 nM | COc1ncc(N2CCOc3ccc(O[C@H]4CON(C(=O)c5cn(C)cn5)C4)cc32)cc1C#N [Example D26, 2-Methoxy-5-{6-[(R)-2-(1-methyl-1H-imidazole-4-carbonyl)-isoxazolidin-4-yloxy]-2,3-dihydro-benzo[1,4]oxazin-4-yl}-nicotinonitrile]
1440 nM | 71 nM | COCCC(=O)N1CC[C@H](Oc2ccc3c(c2)N(c2cnc(OC)c(F)c2)CCO3)C1 [Example B114, 1-{(S)-3-[4-(5-Fluoro-6-methoxy-pyridin-3-yl)-3,4-dihydro-2H-benzo[1,4]oxazin-6-yloxy]-pyrrolidin-1-yl}-3-methoxy-propan-1-one]
393 nM | < 3 nM | COc1ncc(N2CCOc3ccc(O[C@H]4CCN(C(=O)[C@@H]5CCN(C(C)=O)C5)C4)cc32)cc1C#N [K, 5-{6-[(S)-1-((R)-1-Acetyl-pyrrolidine-3-carbonyl)-pyrrolidin-3-yloxy]-2,3-dihydro-benzo[1,4]oxazin-4-yl}-2-methoxy-nicotinonitrile]
783 nM | 3 nM | Cc1cc(N2CCOc3cnc(O[C@H]4CCN(C(=O)C5CCOCC5)C4)cc32)cnc1S(C)(=O)=O [Example F6, {(S)-3-[1-(6-Methanesulfonyl-5-methyl-pyridin-3-yl)-2,3-dihydro-1H-pyrido[3,4-b][1,4]oxazin-7-yloxy]-pyrrolidin-1-yl}-(tetrahydro-pyran-4-yl)-methanone]
365 nM | 11 nM | COc1ncc(N2CCOc3ccc(O[C@H]4CCN(C(=O)C5CCS(=O)(=O)CC5)C4)cc32)cc1Cl [Example B12, {(S)-3-[4-(5-Chloro-6-methoxy-pyridin-3-yl)-3,4-dihydro-2H-benzo[1,4]oxazin-6-yloxy]-pyrrolidin-1-yl}-(1,1-dioxo-hexahydro-1lambda*6*-thiopyran-4-yl)-methanone]
281 nM | 19 nM | COc1ncc(N2CCOc3ccc(O[C@H]4CCN(C(=O)c5cocn5)C4)cc32)cc1C#N [Example D18, 2-Methoxy-5-{6-[(S)-1-(oxazole-4-carbonyl)-pyrrolidin-3-yloxy]-2,3-dihydro-benzo[1,4]oxazin-4-yl}-nicotinonitrile]
846 nM | 53 nM | COc1cc(N2CCOc3ccc(O[C@H]4CCN(C(=O)C5COCCO5)C4)cc32)cnc1OC (single isomer, unassigned) [Example H6]

Structure (SMILES) | IC50 [1] | IC50 [2]
COc1ncc(N2CCOc3cnc(O[C@@H]4CCN(C(=O)C5CCS(=O)(=O)CC5)C4)cc32)cc1C [Example G2, (1,1-Dioxo-hexahydro-1lambda*6*-thiopyran-4-yl)-{(R)-3-[1-(6-methoxy-5-methyl-pyridin-3-yl)-2,3-dihydro-1H-pyrido[3,4-b][1,4]oxazin-7-yloxy]-pyrrolidin-1-yl}-methanone] | 1200 nM | 207 nM
COc1ncc(N2C[C@H](C)Oc3ccc(O[C@H]4CCN(C(=O)C5CCOCC5)C4)cc32)cc1C#N (single isomer, unassigned) [Example O2] | 5690 nM | 49 nM
